Assays:
[1] = system: human Pancreatic cancer cell line BXPC3; assay: Colony formation assay, pancreatic cancer cell line BXPC3; type: cell-based; settings: for BxPC3 Pancreatic activity: summary table / FIG. 34; for potentiation of gemcitabine (surviving colonies) / activity on their own against the pancreatic cancer cells (surviving colonies): BXPC3, FIG. 16; for potentiation of gemcitabine (surviving colonies): 2 μM inhibitor + 0.3 μg/ml gemcitabine, 18 hrs, normalized to gemcitabine; for activity on their own against the pancreatic cancer cells (surviving colonies): 2 μM inhibitor, 18 hrs treatment, colonies after 14 days, normalized to DMSO
Procedure: (§1) The human Pancreatic cancer cell line BXPC3 was plated (4000 cells per plate with a ˜10% plating efficiency) in 10 cm dishes, using 10 ml of RPMI media (always with 10% FBS) per plate, and placed in a […] incubator (5% CO2) for 24 hrs. After 24 hrs, each plate was treated with one or a combination of the following agents: DMSO (0.2% in solution), 0.3 μg/ml of gemcitabine (dissolved in 1×PBS), and/or 2 μM of each Metnase/Intnase inhibitor (dissolved in DMSO). When the DMSO, gemcitabine, and/or inhibitors were added, the plates were swirled several times to assure mixing. After the agents were added to the RPMI, the plates were put back into the incubators for 18 hrs. Following 18 hrs treatment, the media was removed and the cells were washed twice with 1×PBS. Ten ml of fresh RPMI with 10% FBS was added and the cells were placed back into the incubator for 14 days. After the incubation period that will allow surviving cells to form colonies, the media was discarded and surviving colonies were stained with methylene blue. Colonies, a reflection of a single surviving cell that expanded, were counted to measure survival. All experiments were run in triplicate. Experiments were normalized to either DMSO (black asterices) or gemcitabine (red asterices).

[2] = system: human myeloid cell line KG-1; assay: Leukemia cell line KG-1 growth curve, alone or with VP-16; type: cell-based; settings: for effect of compound alone on KG-1 growth, high dose: high (higher) dose of compound (added at 2 uM and 5 uM); for effect of compound alone on KG-1 growth, high dose / potentiation of low dose VP-16 on KG-1 growth, high dose of compound / effect of compound alone on KG-1 growth, lower/low dose / potentiation of low dose VP-16 on KG-1 growth, lower/low dose of compound: counted daily for 4 days; for potentiation of low dose VP-16 on KG-1 growth, high dose of compound: high (higher) dose of compound + VP-16 0.05 uM; for effect of compound alone on KG-1 growth, lower/low dose: lower (low) dose of compound (added at 2 uM and 5 uM); for potentiation of low dose VP-16 on KG-1 growth, lower/low dose of compound: lower (low) dose of compound + VP-16 0.05 uM; for KG-1 Leukemia potency / KG-1 Leukemia cooperativity with VP-16: summary table / FIG. 34
Procedure: (§2) The human myeloid cell line KG-1 was grown in RPMI1640 with 10% FBS. The small cell lung cancer cell line CRL5898 was grown in HITES medium (Dulbecco's medium: Ham's F12, 50:50 mix, Insulin 0.005 mg/ml Transferrin 0.01 mg/ml Sodium selenite 30 nM Hydrocortisone 10 nM beta-estradiol 10 nM HEPES 10 mM L-glutamine 2 mM (in addition to that in the base medium)). Both cell lines were seeded at 10,000 cells/ml in the appropriate medium in 6 well plates. The Chem Div compounds were resuspended as 5 mM stock solutions in DMSO. The Chem Div compounds were added alone at 2 uM and 5 uM or in combination with VP-16 (also called etoposide) at 0.05 uM. DMSO was added to the control wells. Cells were plated and treated in triplicate and counted daily for 4 days.

cancer cells = assay: Summary statements: cytotoxicity for cancer cells alone and with chemotherapy; type: cell-based; settings: summary statement referring to figures
Procedure: as §1
(§3) The human colon cancer cell line SW48 was plated (1000 cells per plate with a ˜20% plating efficiency) in 10 cm dishes, using 10 ml of DMEM media (always with 10% FBS) per plate, and placed in a […] incubator (5% CO2) for 24 hrs. After 24 hr, each plate was treated with one or a combination of the following agents: DMSO (0.2% in solution), 3 μM 5-fluorouracil (5FU, dissolved in 1×PBS), and/or 2 μM of each Metnase/intnase inhibitor (dissolved in DMSO). When the DMSO, 5FU, and/or inhibitors were added, the plates were swirled several times to assure mixing. After agents were added to the DMEM, the plates were put back into the incubators for 18 hr. Following 18 hr treatment, the media was removed and the cells were washed twice with 1×PBS. Ten milliliters of fresh DMEM was added and the cells were placed back into the incubator for 7-14 days. After the incubation period that will allow surviving cells to grow and form colonies, media was discarded and surviving colonies were stained with methylene blue. Colonies, a reflection of a single surviving cell that expanded, were counted to measure survival. All experiments were run in triplicate. Experiments were normalized to either DMSO (black asterices) or 5FU (red asterices).
as §2

[3] = system: small cell lung cancer cell line CRL5898; assay: Small cell lung cancer cell line CRL5898 growth, alone or with VP-16; type: cell-based; settings: for CLR5898 Small Cell Lung Cancer cooperativity with VP-16 / CLR5898 Small Cell Lung Cancer potency: summary table / FIG. 34
Procedure: as §2

[4] = system: human colon cancer cell line SW48; assay: Colony formation assay, colon cancer cell line SW48; type: cell-based; settings: FIG. 17; for activity on their own against the colon cancer cells (surviving colonies): 2 μM inhibitor, 18 hr treatment, colonies after 7-14 days, normalized to DMSO
Procedure: as §3

CYP3A = settings: cited from earlier work
[5] = in vivo; cited from earlier work

Compound | BxPC3 Pancreatic activity [1] | effect of compound alone on KG-1 growth, high dose [2] | potentiation of low dose VP-16 on KG-1 growth, high dose of compound [2] | effect of compound alone on KG-1 growth, lower/low dose [2] | potentiation of low dose VP-16 on KG-1 growth, lower/low dose of compound [2] | KG-1 Leukemia potency [2] | cytotoxicity for cancer cells with chemotherapy agents (potentiation) (cancer cells) | cytotoxicity for cancer cells, compound alone (cancer cells) | KG-1 Leukemia cooperativity with VP-16 [2] | CLR5898 Small Cell Lung Cancer cooperativity with VP-16 [3] | CLR5898 Small Cell Lung Cancer potency [3] | potentiation of gemcitabine (surviving colonies) [1] | activity on their own against the pancreatic cancer cells (surviving colonies) [1] | potentiation of 5FU (surviving colonies) ([4]; 2 μM inhibitor + 3 μM 5-fluorouracil, 18 hr, normalized to 5FU) | activity on their own against the colon cancer cells (surviving colonies) [4] | potentiation of low dose VP-16 on CRL5898 cell growth ([3]; FIG. 33) | effect of compound alone on CRL5898 cell growth ([3]; FIG. 33, compared with low dose VP-16) | CYP3A induction (CYP3A) | Serum half-life [5] [h]
CCn1cc(C(C)=O)c(=O)c2cc(F)c(N3CCN(C(=O)c4ccc(Cl)cc4)CC3)cc21 [5076-4170] | inactive | slowed the growth of the leukemia cell line KG-1 and caused cell death with prolonged treatment | some potentiation on the anti-proliferative effect of low dose VP-16 | slowed the growth of the leukemia cell line KG-1 and caused cell death with prolonged treatment | some potentiation on the anti-proliferative effect of low dose VP-16 | High potency, probably below 1 uM. | increased the cytotoxicity of chemotherapy when added | cytotxoic for cancer cells alone | – | – | – | – | – | – | – | – | – | – | –
CCn1cc(C(=O)O)c(=O)c2cc(F)c(N3CCN(C(=O)c4ccc(OC(C)=O)cc4)CC3)cc21 [5082-2438] | weak | decreased KG-1 leukemia cell growth, similar to low dose VP-16 alone | potentiated the anti-proliferative effect of low dose VP-16 and prolonged treatment resulted in cell death | decreased KG-1 leukemia cell growth, similar to low dose VP-16 alone | potentiated the effect of low dose VP-16 and prolonged treatment resulted in cell death | Potency in uM | increased the cytotoxicity of chemotherapy when added | cytotxoic for cancer cells alone | Cooperativity with VP-16 | No or very | Potency in uM | – | – | – | – | – | – | – | –
CC(C)n1cc(C(=O)O)c(=O)c2ccccc21 [5483-0023] | Active | decreased KG-1 leukemia cell growth especially with longer treatment | potentiated the anti-proliferative effect of low dose VP-16 | decreased KG-1 leukemia cell growth, similar to low dose VP-16 | potentiated the anti-proliferative effect of low dose VP-16 | Potency in uM | increased the cytotoxicity of chemotherapy when added | cytotxoic for cancer cells alone | Cooperativity with VP-16 | No or very | Potency in uM | potentiate gemcitabine | activity on their own | potentiate 5FU | activity on their own | – | – | – | –
Cc1ccc(NCC(=O)Nc2cccc(C(=O)O)c2O)cc1 [8017-3379] | inactive | inhibited KG-1 leukemia cell growth even more than low dose VP-16 alone | no potentiation on the effect of low dose VP-16 | inhibited KG-1 leukemia cell growth even more than low dose VP-16 alone | no potentiation on the effect of low dose VP-16 | Potency in uM | – | cytotxoic for cancer cells alone | No or very weak | No or very | Potency in uM | – | – | – | – | some potentiation of the anti-proliferative effect of low dose VP-16 | inhibited cell growth of the small cell lung cancer cell line CRL5898, the same as low dose VP-16 | – | –
O=C(O)c1ccc(N2C(=O)Nc3ccccc3N2O)cc1O [D0045-0007] | – | – | – | decreased KG-1 leukemia cell growth compared to control | potentiated the anti-proliferative effect of low dose VP-16 | – | increased the cytotoxicity of chemotherapy when added | cytotxoic for cancer cells alone | – | – | – | potentiate gemcitabine | activity on their own | – | activity on their own | – | – | – | –
COc1cc2c(cc1Cc1cccc(Cl)c1F)c(=O)c(C(=O)O)cn2[C@H](CO)C(C)C [Elvitegravir, 6-[(3-chloro-2-fluorophenyl)methyl]-1-[(2S)-1-hydroxy-3-methylbutan-2-yl]-7-methoxy-4-oxoquinoline-3-carboxylic acid, reference compound] | – | – | – | – | – | – | – | cytotoxic for cancer cells alone | – | – | – | potentiate gemcitabine | activity on their own | – | – | – | – | moderate CYP3A inducer | 3
COc1ccc(Cn2c(C)c(CNC(C)c3ccccc3)c(C(=O)O)c2C)cc1 (centres unmarked) [G396-1171] | inactive | decreasedKG-1 leukemia cell growth, similar to low dose VP-16 alone | potentiated the anti-proliferative effect of low dose VP-16 | decreased KG-1 leukemia cell growth, similar to low dose VP-16 alone | potentiated the anti-proliferative effect of low dose VP-16 | Potency in uM | increased the cytotoxicity of chemotherapy when added | cytotxoic for cancer cells alone | Cooperativity with VP-16 | No | Potency in uM | – | – | – | – | – | – | – | –
O=C(O)c1cc(=O)c2ccccc2o1 [R092-0025] | – | – | – | – | – | – | increased the cytotoxicity of chemotherapy when added | cytotxoic for cancer cells alone | – | – | – | potentiate gemcitabine | activity on their own | – | activity on their own | – | – | – | –

— US20120093917A1, “METNASE AND INTNASE INHIBITORS AND THEIR USE IN TREATING CANCER” (priority 2009, published 2012)
